According to paper PMC7093416, “Selective USP7 inhibition elicits cancer cell killing through a p53-dependent mechanism” (Scientific Reports, 2020):
Like-named read-outs stand apart in the source and are kept apart here.

Experiments:
TC32 cells = assay: Cell viability (CellTiter-Glo) in TC32 cells expressing sgRNA (TP53-KO vs control); type: cell-based; details: 3 days
Procedure: Cells were plated in 384-well culture-treated plates and allowed to settle overnight. After drug treament and appropriate incubation time, cell viability was assessed using the CellTiter-Glo Luminescent Cell Viability Assay (Promega). Luminescence was read on a Fluostar Omega Reader (BMG Labtech).

p53 target genes = assay: Quantitative real-time PCR of p53 target genes in MCF7 cells; type: cell-based; details: 1 μM, 24 hours
Procedure: After cell treatment under the indicated conditions, total cellular RNA was purified using a Qiagen RNEasy kit. 1 μg of RNA was then converted to cDNA using SuperScript III First-Strand Synthesis (Invitrogen). cDNA from each sample was then combined with the indicated TaqMan probe and 2x MasterMix in a 96-well Fast RT-PCR plate (Invitrogen). qPCR was performed on an Invitrogen 7500 Fast qPCR instrument and gene expression was calculated using the 2^-∆∆Ct method on Graphpad Prism.

USP7 [1] = target: T1, USP7 (Homo sapiens, UniProt Q93009); assay: Competitive ABPP with HA-Ub-VS in MCF7 crude cell extracts; type: binding; parameters: endogenous in cells; host or cells: MCF7; details: read-out: IC50 of inhibition of HA-Ub-VS labeling
T1 sequence (Q93009 whole entry): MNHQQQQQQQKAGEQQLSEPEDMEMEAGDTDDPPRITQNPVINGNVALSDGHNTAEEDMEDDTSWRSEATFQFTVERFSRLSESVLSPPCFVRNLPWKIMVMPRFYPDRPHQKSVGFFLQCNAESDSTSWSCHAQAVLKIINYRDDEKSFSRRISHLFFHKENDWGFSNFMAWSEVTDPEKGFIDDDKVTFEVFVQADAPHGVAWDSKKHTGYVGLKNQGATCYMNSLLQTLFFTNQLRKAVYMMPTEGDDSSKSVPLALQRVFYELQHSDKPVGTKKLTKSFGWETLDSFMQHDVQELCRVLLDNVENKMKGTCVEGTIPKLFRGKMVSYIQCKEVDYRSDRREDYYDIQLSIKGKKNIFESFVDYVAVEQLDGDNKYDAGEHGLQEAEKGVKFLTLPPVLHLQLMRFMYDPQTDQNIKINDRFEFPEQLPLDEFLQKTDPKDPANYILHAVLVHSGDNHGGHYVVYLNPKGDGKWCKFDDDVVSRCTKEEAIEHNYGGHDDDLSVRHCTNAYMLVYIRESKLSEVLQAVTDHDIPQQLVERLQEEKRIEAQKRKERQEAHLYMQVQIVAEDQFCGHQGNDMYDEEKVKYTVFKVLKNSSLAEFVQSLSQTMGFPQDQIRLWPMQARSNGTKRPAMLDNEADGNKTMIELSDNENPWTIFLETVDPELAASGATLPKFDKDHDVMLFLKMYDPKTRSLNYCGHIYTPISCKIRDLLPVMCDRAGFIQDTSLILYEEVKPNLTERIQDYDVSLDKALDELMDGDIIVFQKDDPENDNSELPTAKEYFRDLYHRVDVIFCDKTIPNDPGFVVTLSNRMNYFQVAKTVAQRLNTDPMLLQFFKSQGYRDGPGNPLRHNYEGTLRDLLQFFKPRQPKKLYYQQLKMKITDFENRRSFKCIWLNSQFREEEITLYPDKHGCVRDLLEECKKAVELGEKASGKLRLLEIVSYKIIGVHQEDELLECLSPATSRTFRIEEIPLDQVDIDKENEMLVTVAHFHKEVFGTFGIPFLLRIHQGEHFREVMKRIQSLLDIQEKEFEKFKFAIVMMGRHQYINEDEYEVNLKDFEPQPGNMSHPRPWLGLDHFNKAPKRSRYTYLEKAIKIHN
Procedure: HA-Ub-VS experiments were performed as previously described in Lamberto et al[29]. Briefly, target engagement lysis buffer (50 mM Tris pH 8.0, 150 mM NaCl, 5 mM MgCl2, 0.5 mM EDTA, 0.5% NP-40, 10% glycerol, 1 mM TCEP, protease and phosphatase inhibitors) was added to cell pellets on ice. Lysate was cleared by centrifugation and diluted to 1.67 mg/mL. Where indicated, 30 μL lysate was then incubated with inhibitors or DMSO for the indicated timepoints. 1 μM HA-Ub-VS was then added to the lysate and incubated at RT for the indicated time points. Labeling reactions were quenched with 4x LDS sample buffer (Thermo Fisher B0007) supplemented with 10% BME, vortexed vigorously, and heated to 95 C for 5 minutes. Samples were resolved by SDS-PAGE and analyzed by Western blot with the indicated antibodies.

USP7 [2] = target: T1, USP7; assay: In vitro DUB profiling (Ubiquigent, Ub-Rho), USP7; type: biochemical; details: 1 µM, 15-minute pre-treatment
Procedure: Compounds were screened using the Ubiquigent Drug Profiler SPT system (www.ubiquigent.com/drug-discovery-services/dubprofiler/). Each of 41 purified DUBs was incubated with compound for 15 minutes, then ubiquitin rhodamine 110 (Ub-Rho) was added and percent inhibition determined based on fluorescence relative to a DMSO control.

USP7 [3] = target: T1, USP7; assay: XL177A-DTB chemoproteomic profiling with XL177A competition, USP7; type: binding; parameters: endogenous in cells; host or cells: HEK 293AD lysate
Procedure: HEK 293AD cells were lysed as described above, and the lysate was cleared by centrifugation. […] SDS was added to a final concentration of 1.2% (27.2 μL of a 10% stock), and denatured by heating to 80 °C for 5 minutes. After cooling to RT, 1125 μL 1X PBS was added to dilute the final SDS concentration to 0.2%. 50 μL streptavidin agarose slurry was added to each sample, followed by incubation at RT for 3 hours. After streptavidin enrichment, samples were washed vigorously (2×0.2% SDS, 3x PBS, 3x ddH2O). After the final wash, all supernatant was removed using a flat-bottom tip, and the resin was flash frozen and stored at −80 °C until workup for TMT labeling.
To remove rapigest, recovered supernatants were acidified with 10% TFA, incubated at 37 °C for 45 minutes, and centrifuged at 14,000 rpm for 15 minutes at 4 °C. Peptides were then desalted by C18, and dried by vacuum centrifugation. Dried peptides were reconstituted in 50 mM pH8.0 TEAB and labeled with TMT reagent at RT for 1 hour. TMT reactions were pooled and treated with hydroxylamine according to the manufacturer’s instructions. Peptide mixtures were then dried, reconstituted in 50 mM ammonium bicarbonate and desalted by SP3[53]. Eluted peptides were then analyzed by nanoflow LC-MS/MS as described[64] with a NanoAcquity UPLC system (Waters, Milford, MA) interfaced to a QExactive HF mass spectrometer (Thermofisher Scientific, San Jose, CA). TMT labeled peptides were injected onto a precolumn (4 cm POROS 10R2, Applied Biosystems, Framingham, MA), resolved on an analytical column (30 µm I.D. × 50 cm packed with 5 µm Monitor C18) and introduced to the mass spectrometer by ESI (spray voltage = 3.5 kV, flow rate ~30 nL/min). The mass spectrometer was operated in data dependent mode such that the 15 most abundant ions in each MS scan (m/z 300–2000, 120 K resolution, target = 3E6, lock mass for 445.120025 enabled) were subjected to MS/MS (m/z 100–2000, 30 K resolution, target = 1E5, max fill time = 100 ms). Dynamic exclusion was selected with a repeat count of 1 and an exclusion time of 30 seconds. MS/MS data was extracted to.mgf using mulitplierz scripts[54],[55] and searched against a forward-reverse human NCBI refseq database using Mascot version 2.6. Search parameters specified fixed carbamidomethylation of cysteine, fixed N-terminal and lysine TMT labelling, and variable oxidation (methionine). Additional multiplierz scripts were used to filter results to 1% FDR and derive protein-level aggregate reporter ion intensities using peptides mapping uniquely into the genome.

[4] = USP7 reporter ion intensity, XL177A-DTB pulldown, HEK293AD lysate pre-treated 100nM XL177A
[5] = USP7 reporter ion intensity, XL177A-DTB pulldown, HEK293AD lysate pre-treated 1uM XL177A
[6] = USP7 reporter ion intensity, XL177A-DTB pulldown, HEK293AD lysate pre-treated 10uM XL177A
[7] = USP7 reporter ion intensity, average of Run 1 and Run 2, 100nM XL177A
[8] = USP7 reporter ion intensity, average of Run 1 and Run 2, 1uM XL177A
[9] = USP7 reporter ion intensity, average of Run 1 and Run 2, 10uM XL177A

IC50 (USP7 [1]; 30 min preincubation): 0.085 µM
IC50 (USP7 [1]; 4 hr preincubation): 0.008 µM
USP7 enzymatic activity (USP7 [2]): completely inhibited
inhibition of XL177A-DTB labeling (USP7 [3]; HEK293 lysate, XL177A 1 or 10 μM, 5 hours, only USP7 of 566 proteins): > 3 fold
Run 1 100nM 1 (USP7 [3]; [4]): 31732106
Run 1 100nM 2 (USP7 [3]; [4]): 30184262
Run 1 100nM 3 (USP7 [3]; [4]): 32232481
Run 2 100nM 1 (USP7 [3]; [4]): 31803721
Run 2 100nM 2 (USP7 [3]; [4]): 30185364
Run 2 100nM 3 (USP7 [3]; [4]): 32073312
Run 1 1uM 1 (USP7 [3]; [5]): 8663971
Run 1 1uM 2 (USP7 [3]; [5]): 7593596
Run 1 1uM 3 (USP7 [3]; [5]): 8340895
Run 2 1uM 1 (USP7 [3]; [5]): 8601953
Run 2 1uM 2 (USP7 [3]; [5]): 7625246
Run 2 1uM 3 (USP7 [3]; [5]): 8414168
Run 1 10uM 1 (USP7 [3]; [6]): 7727617
Run 1 10uM 2 (USP7 [3]; [6]): 7625585
Run 2 10uM 1 (USP7 [3]; [6]): 7739438
Run 2 10uM 2 (USP7 [3]; [6]): 7761626
AVE 100nM 1 (USP7 [3]; [7]): 31767914
AVE 100nM 2 (USP7 [3]; [7]): 30184813
AVE 100nM 3 (USP7 [3]; [7]): 32152896
AVE 1uM 1 (USP7 [3]; [8]): 8632962
AVE 1uM 2 (USP7 [3]; [8]): 7609421
AVE 1uM 3 (USP7 [3]; [8]): 8377532
AVE 10uM 1 (USP7 [3]; [9]): 7733528
AVE 10uM 2 (USP7 [3]; [9]): 7693606
Compound: CN1CCN(CCC(=O)Nc2ccc3c(=O)n(CC4(O)CCN(C(=O)[C@@H](CCCNC(=O)c5ccc6c(Cl)c7c(nc6c5)CCCC7)Cc5ccccc5)CC4)cnc3c2)CC1 [XL177A]
effect of TP53 KO on growth suppression (TC32 cells): completely rescued TC32 growth except at high doses
transcription of p53 target genes (CDKN1A, GADD45A, BAX, DDB2) (p53 target genes): stimulating transcription of p53 target genes
